Reference: patent publication US6737383B1, “Herbicidal oxadiazolidines” (priority 1999, dated 2004)

Assays:
blackgrass = test: Test B pre/postemergence blackgrass; assay type: in vivo, Alopecurus myosuroides
How it was run: (§1)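 Test chemicals in a non-phytotoxic solvent mixture with surfactant were sprayed preemergence onto planted seeds and postemergence onto plants 2 to 18 cm tall (1- to 4-leaf stage). After twelve to sixteen days in a greenhouse, injury was visually rated against untreated controls from 0 (no effect) to 10 (complete control).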

wheat = test: Test B pre/postemergence wheat; assay type: in vivo, Triticum aestivum
How it was run: as §1

wild oat = test: Test B pre/postemergence wild oat; assay type: in vivo, Avena fatua
How it was run: as §1

surinam grass = test: Test B pre/postemergence surinam grass; assay type: in vivo, Brachiaria decumbens
How it was run: as §1

cocklebur = test: Test B pre/postemergence cocklebur; assay type: in vivo, Xanthium strumarium
How it was run: as §1

morningglory = test: Test B pre/postemergence morningglory; assay type: in vivo, Ipomoea hederacea
How it was run: as §1

purple nutsedge = test: Test B pre/postemergence purple nutsedge; assay type: in vivo, Cyperus rotundus
How it was run: as §1

giant foxtail = test: Test B pre/postemergence giant foxtail; assay type: in vivo, Setaria faberii
How it was run: as §1

rape = test: Test B pre/postemergence rape; assay type: in vivo, Brassica napus
How it was run: as §1

soybean = test: Test B pre/postemergence soybean; assay type: in vivo, Glycine max
How it was run: as §1

velvetleaf = test: Test B pre/postemergence velvetleaf; assay type: in vivo, Abutilon theophrasti
How it was run: as §1

pigweed = test: Test B pre/postemergence pigweed; assay type: in vivo, Amaranthus retroflexus
How it was run: as §1

bedstraw = test: Test B pre/postemergence bedstraw; assay type: in vivo, Galium aparine
How it was run: as §1

smallflower flatsedge = test: Test B flood test smallflower flatsedge; assay type: in vivo, Cyperus difformis
How it was run: (§2)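 Flood test on plants grown to the 2-leaf stage; treated plants kept in greenhouse twelve to sixteen days, then visually rated against controls on a 0 (no effect) to 10 (complete control) scale.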

bamyardgrass = test: Test B flood test barnyardgrass; assay type: in vivo, Echinochloa crus-galli
How it was run: as §2

duck salad = test: Test B flood test duck salad; assay type: in vivo, Heteranthera limosa
How it was run: as §2

[1] = Postemergence, Rate 62 g/ha, scale of 0 to 10, 0 is no effect, 10 is complete control
[2] = Postemergence, Rate 125 g/ha, scale 0 to 10, 0 is no effect, 10 is complete control
[3] = Postemergence, Rate 500 g/ha, scale of 0 to 10 where 0 is no effect and 10 is complete control
[4] = Preemergence, Rate 62 g/ha, scale 0 to 10 (0 no effect, 10 complete control)
[5] = Preemergence, Rate 125 g/ha, scale 0 to 10, 0 is no effect, 10 is complete control
[6] = Preemergence, Rate 500 g/ha, scale of 0 to 10 where 0 is no effect and 10 is complete control
[7] = Rate 250 g/ha, Postemergence, scale of 0 to 10 where 0 is no effect and 10 is complete control
[8] = Rate 62 g/ha, flood test species, Pre-emergence, visual evaluation after twelve to sixteen days
[9] = Rate 125 g/ha, under heading Pre-emergence, flood test species, visual evaluation after twelve to sixteen days
[10] = Rate 250 g/ha, Pre-emergence (flood test species), scale 0 to 10, 0 is no effect, 10 is complete control
[11] = Rate 500 g/ha, Pre-emergence section of Table B, 0 to 10 scale (0 no effect, 10 complete control)

CCCCn1c(=O)on(C(=O)N(c2ccccc2)C(C)C)c1=O [Compound 556]
1: Barnyardgrass plant response rating (bamyardgrass; [11])
0: Blackgrass plant response rating (blackgrass; [1]) | Wheat plant response rating (wheat; [1]) | Wheat plant response rating (wheat; [4]) | Wheat plant response rating (wheat; [5]) | Wild oats plant response rating (wild oat; [4]) | Wild oats plant response rating (wild oat; [5]) | B. signalgrass plant response rating (surinam grass; [1]) | Cocklebur plant response rating (cocklebur; [1]) | Cocklebur plant response rating (cocklebur; [2]) | Plant response rating, Cocklebur (cocklebur; [3]) | Cocklebur plant response rating (cocklebur; [4]) | Cocklebur plant response rating (cocklebur; [5]) | Cocklebur plant response rating (0 to 10 scale) (cocklebur; Preemergence, Rate 250 g/ha) | Cocklebur plant response rating (cocklebur; [6]) | Plant response rating, Cocklebur (cocklebur; [7]) | Morningglory plant response rating (morningglory; [1]) | Morningglory plant response rating (morningglory; [4]) | Morningglory plant response rating (morningglory; [5]) | Morningglory plant response rating (0 to 10 scale) (morningglory; Preemergence, Rate 250 g/ha) | Morningglory plant response rating (morningglory; [6]) | Nutsedge plant response rating (purple nutsedge; [1]) | Nutsedge plant response rating (purple nutsedge; [2]) | Plant response rating, Nutsedge (purple nutsedge; [3]) | Nutsedge plant response rating (purple nutsedge; [4]) | Nutsedge plant response rating (purple nutsedge; [5]) | Nutsedge plant response rating (0 to 10 scale) (purple nutsedge; Preemergence, Rate 250 g/ha) | Nutsedge plant response rating (purple nutsedge; [6]) | Plant response rating, Nutsedge (purple nutsedge; [7]) | Rape plant response rating (rape; [1]) | Rape plant response rating (rape; [2]) | Rape plant response rating (rape; [4]) | Plant response rating, Rape (rape; [7]) | Soybean plant response rating (soybean; [1]) | Soybean plant response rating (soybean; [4]) | Soybean plant response rating (soybean; [5]) | Soybean plant response rating (0 to 10 scale) (soybean; Preemergence, Rate 250 g/ha) | Soybean plant response rating (soybean; [6]) | Velvetleaf plant response rating (velvetleaf; [1]) | Velvetleaf plant response rating (velvetleaf; [4]) | Plant response rating, Velvetleaf (velvetleaf; [7]) | Redroot pigweed plant response rating (pigweed; [4]) | Bedstraw plant response rating (bedstraw; [1]) | Bedstraw plant response rating (bedstraw; [2]) | Plant response rating, Bedstraw (bedstraw; [3]) | Bedstraw plant response rating (bedstraw; [4]) | Bedstraw plant response rating (bedstraw; [5]) | Bedstraw plant response rating (0 to 10 scale) (bedstraw; Preemergence, Rate 250 g/ha) | Bedstraw plant response rating (bedstraw; [6]) | Plant response rating, Bedstraw (bedstraw; [7]) | Plant response rating, S. Flatsedge (0 to 10 scale, 0 is no effect, 10 is complete control) (smallflower flatsedge; [8]) | S. Flatsedge plant response rating (0 to 10 scale, 0 is no effect, 10 is complete control) (smallflower flatsedge; [9]) | S. Flatsedge plant response rating (smallflower flatsedge; [10]) | S. Flatsedge plant response rating (smallflower flatsedge; [11]) | Plant response rating, Barnyardgrass (0 to 10 scale, 0 is no effect, 10 is complete control) (bamyardgrass; [8]) | Barnyardgrass plant response rating (0 to 10 scale, 0 is no effect, 10 is complete control) (bamyardgrass; [9]) | Barnyardgrass plant response rating (bamyardgrass; [10]) | Plant response rating, Ducksalad (0 to 10 scale, 0 is no effect, 10 is complete control) (duck salad; [8]) | Ducksalad plant response rating (0 to 10 scale, 0 is no effect, 10 is complete control) (duck salad; [9]) | Ducksalad plant response rating (duck salad; [10]) | Ducksalad plant response rating (duck salad; [11])
8: Rape plant response rating (rape; [6]) | Plant response rating, Soybean (soybean; [3])
3: Blackgrass plant response rating (blackgrass; [2]) | Plant response rating, Blackgrass (blackgrass; [7]) | Plant response rating, Wheat (wheat; [3]) | Wheat plant response rating (0 to 10 scale) (wheat; Preemergence, Rate 250 g/ha) | Rape plant response rating (rape; [5]) | Rape plant response rating (0 to 10 scale) (rape; Preemergence, Rate 250 g/ha) | Plant response rating, Soybean (soybean; [7]) | Velvetleaf plant response rating (0 to 10 scale) (velvetleaf; Preemergence, Rate 250 g/ha) | Velvetleaf plant response rating (velvetleaf; [6]) | Redroot pigweed plant response rating (pigweed; [1]) | Plant response rating, Redroot pigweed (pigweed; [7])
5: Redroot pigweed plant response rating (pigweed; [5]) | Redroot pigweed plant response rating (0 to 10 scale) (pigweed; Preemergence, Rate 250 g/ha) | Redroot pigweed plant response rating (pigweed; [6])
10: Blackgrass plant response rating (0 to 10 scale) (blackgrass; Preemergence, Rate 250 g/ha) | Blackgrass plant response rating (blackgrass; [6]) | Plant response rating, Morningglory (morningglory; [3]) | Giant foxtail plant response rating (0 to 10 scale) (giant foxtail; Preemergence, Rate 250 g/ha) | Giant foxtail plant response rating (giant foxtail; [6])
9: Blackgrass plant response rating (blackgrass; [5]) | B. signalgrass plant response rating (surinam grass; [6]) | Plant response rating, Giant foxtail (giant foxtail; [3]) | Giant foxtail plant response rating (giant foxtail; [4]) | Giant foxtail plant response rating (giant foxtail; [5]) | Plant response rating, Giant foxtail (giant foxtail; [7])
7: Plant response rating, B. signalgrass (surinam grass; [3]) | B. signalgrass plant response rating (surinam grass; [5]) | B. signalgrass plant response rating (0 to 10 scale, 0 is no effect, 10 is complete control) (surinam grass; Preemergence, Rate 250 g/ha) | Giant foxtail plant response rating (giant foxtail; [2])
6: Plant response rating, Blackgrass (blackgrass; [3]) | Blackgrass plant response rating (blackgrass; [4]) | Wild oats plant response rating (wild oat; [6]) | B. signalgrass plant response rating (surinam grass; [4])
2: Plant response rating, Wheat (wheat; [7]) | Wild oats plant response rating (wild oat; [1]) | Plant response rating, Wild oats (wild oat; [3]) | Plant response rating, Wild oats (wild oat; [7]) | B. signalgrass plant response rating (surinam grass; [2]) | Morningglory plant response rating (morningglory; [2]) | Plant response rating, Rape (rape; [3]) | Plant response rating, Velvetleaf (velvetleaf; [3]) | Velvetleaf plant response rating (velvetleaf; [5])
4: Wheat plant response rating (wheat; [6]) | Wild oats plant response rating (0 to 10 scale) (wild oat; Preemergence, Rate 250 g/ha) | Plant response rating, B. signalgrass (surinam grass; [7]) | Plant response rating, Morningglory (morningglory; [7]) | Giant foxtail plant response rating (giant foxtail; [1]) | Plant response rating, Redroot pigweed (pigweed; [3])
